Reference: patent US20030224390A1, “Method of identifying conformation-sensitive binding peptides and uses thereof” (Karo Bio AB, priority 2000, published 2003)

How the values were obtained:
androgen receptor [1] = target: T1, androgen receptor (Homo sapiens, UniProt P10275); assay: Yeast two-hybrid screening of unbiased X15 peptide library, ligand induced β-galactosidase activity (FIG. 3, Table 503); type: cell-based; parameters: expressed in transfected cells; host or cells: Saccharomyces cerevisiae PJ69-4α; ligand induced β-galactosidase activity, No Lig / ligand induced β-galactosidase activity, DHT / ligand induced β-galactosidase activity, CPA / ligand induced β-galactosidase activity, RU / ligand induced β-galactosidase activity, Test / ligand induced β-galactosidase activity, MPA: unit not given here; conditions: for ligand induced β-galactosidase activity, CPA / ligand induced β-galactosidase activity, DHT / ligand induced β-galactosidase activity, MPA / ligand induced β-galactosidase activity, RU / ligand induced β-galactosidase activity, Test / ligand induced β-galactosidase activity, No Lig: yeast two-hybrid; for Fold induction: untitled table before Table 503, values match DHT / No Lig of Table 503
T1 sequence (P10275 1-920): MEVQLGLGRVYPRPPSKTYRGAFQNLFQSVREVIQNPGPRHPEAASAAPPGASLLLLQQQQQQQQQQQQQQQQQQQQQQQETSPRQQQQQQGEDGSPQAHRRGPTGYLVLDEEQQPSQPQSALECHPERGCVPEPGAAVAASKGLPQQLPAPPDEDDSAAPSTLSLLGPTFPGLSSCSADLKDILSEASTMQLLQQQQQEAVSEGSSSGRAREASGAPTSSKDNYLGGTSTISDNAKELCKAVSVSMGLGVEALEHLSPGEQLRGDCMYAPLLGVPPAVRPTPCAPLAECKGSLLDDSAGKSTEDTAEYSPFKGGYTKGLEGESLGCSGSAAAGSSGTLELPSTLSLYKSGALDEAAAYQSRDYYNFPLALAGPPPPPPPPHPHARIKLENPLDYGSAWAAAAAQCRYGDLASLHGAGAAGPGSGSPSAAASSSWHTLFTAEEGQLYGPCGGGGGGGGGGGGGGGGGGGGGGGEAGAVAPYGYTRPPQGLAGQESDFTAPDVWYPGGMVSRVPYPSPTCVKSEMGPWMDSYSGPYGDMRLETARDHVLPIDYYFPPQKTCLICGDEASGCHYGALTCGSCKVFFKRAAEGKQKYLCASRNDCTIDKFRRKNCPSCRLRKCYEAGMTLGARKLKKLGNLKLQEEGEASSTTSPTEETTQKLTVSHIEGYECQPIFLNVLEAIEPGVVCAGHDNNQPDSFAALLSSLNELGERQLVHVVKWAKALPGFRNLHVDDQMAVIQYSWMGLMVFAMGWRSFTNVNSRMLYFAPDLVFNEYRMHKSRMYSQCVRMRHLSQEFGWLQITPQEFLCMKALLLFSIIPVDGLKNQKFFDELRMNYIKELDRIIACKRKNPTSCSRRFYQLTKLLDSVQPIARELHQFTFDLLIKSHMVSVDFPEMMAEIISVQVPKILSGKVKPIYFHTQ
Excerpt: Our library contained predominantly 15 random amino acid residues/peptide in order to identify motifs that might interact with nuclear receptor domains. If ligand is provided to the cells, one can screen for peptides that interact with the ligand-bound receptor. […] Included at the ends of the oligonucleotide were the synthetic restriction endonuclease cleavage sites, EcoRI or Mfe I (5′ end) and Sal I (3′ end). Oligonucleotides were annealed, then cleaved with excess restriction endonuclease and purified on agarose gels. The purified set of oligonucleotides was subcloned as an in-frame carboxy-terminal fusion to a Gal4 DNA binding domain (plasmid vector pMA424 derivative). […] The transformation mix was divided and grown on plates of selective media containing ligand and 25 mM 3-aminotriazole at 30° C. until colonies appeared in 3-7 days. […] Dihydrotestosterone (DHT) and medroxyprogesterone (MPA) were added to the media at 100 nM to identify peptides that interact with the receptor in the presence of ligand. After colonies appeared they were picked and dispersed into individual wells of a 96-well plate containing rich media (YPD).
To determine ligand dependence, two microliter aliquots were removed from the cell suspension, and arrayed and spotted onto each of two rectangular agar plates, one with 100 nM ligand and one without ligand. Growth was monitored daily.
A secondary test of ligand dependent activation was performed using the integrated GAL4-driven lacZ gene. Cell suspensions of the initial positive clones were diluted 20-fold into 20 microliters of rich media in a microplate and grown overnight at 30° C. in the presence and absence of ligand. Microplates were centrifuged for 5 minutes at 3000 rpm in a swinging table top centrifuge to pellet the yeast cells, and the overlying media was aspirated. […] An OD650 density determination was made to normalize the β-galactosidase activity. β-galactosidase activity was monitored following the addition of buffer containing chlorophenol red-β-galactopyranoside (CPRG) (Boehringer Mannheim) substrate at a final concentration of 0.5 mM. […] The maximum slope value of this measurement was normalized to cell density from the initial OD650 value, and the relative ligand dependence of β-galactosidase was determined by comparing the values plus and minus ligand.
In FIG. 3, all of these ligands were tested. The plasmids from true positives were extracted using standard yeast extraction protocols and re-transformed to verify the positive phenotype.

androgen receptor [2] = target: T1, androgen receptor; type: cell-based; parameters: expressed in transfected cells; conditions: for luciferase normalized to β-galactosidase, DHT / luciferase normalized to β-galactosidase, MPA / luciferase normalized to β-galactosidase, RU486 / luciferase normalized to β-galactosidase, no compound: mammalian two-hybrid, Huh-7 cells; for luciferase normalized to β-galactosidase, DHT: ligand DHT; for luciferase normalized to β-galactosidase, MPA: ligand MPA; for luciferase normalized to β-galactosidase, RU486: ligand RU486
Excerpt: We used a mammalian two-hybrid system to determine specificities of the AR-binding peptides previously identified, through screening of the aforementioned yeast library, as ligand-dependent in their binding activity. Ligand was provided to the cells so the interaction could be observed. The human hepatoma cell line, Huh-7, was used as the recipient of two-hybrid vectors, pM and pVP16 (Clontech) (FIGS. 6A and 6B), containing fusions with peptide and AR, respectively. According to Clontech literature, the Clontech vectors pM and VP16 generate fusions of protein X with the GAL4 DNA-BD and fusions of protein Y with the VP16AD, in the Mammalian MM Two-Hybrid Assay Kit (#K1602-1). (Note: pM and VP16 contain unique cloning sites in the same order and reading frame as the DNA-BD and AD, respectively, vectors in the yeast […] Two-Hybrid Systems.) A third vector, pG5CAT, provides a CAT reporter gene under the control of a GAL4-responsive element and minimal promoter of the adenovirus E1b. The three vectors are cotransfected into any suitable mammalian host cell line by standard methods. The interaction between proteins X and Y is then assayed by measuring CAT gene expression by any standard method. In the absence of activation (i.e., no protein-protein interaction), the minimal E1b promoter will not express significant levels of CAT.
Briefly, cells are seeded in a 24-well culture plate to a density of 50-80% confluence in phenol red-free media containing charcoal-dextran stripped fetal bovine serum (10%). Following incubation overnight, cells are transfected with plasmids pM-peptide, pVP16-AR, pCMV-b-gal, and p5XGAL-Luc3 DNAs using lipofectamine 2000 (LifeTech) according to the manufacturer's protocol. Transfections are allowed to proceed for 6 hours and the transfection media is aspirated and replaced with recovery media for 18 hours. Following the recovery period, cells are treated with compound for 24 hours prior to cell harvesting. Cells are washed with PBS and then lysed using the lysis buffer from the Galacto-Light Plus β-galactosidase assay kit (Tropix). Assays for luciferase and β-galactosidase were performed as described by the manufacturer. Peptide/AR interactions are described in terms of the luciferase activity normalized for transfection efficiency using β-galactosidase activity (see FIG. 4A). Two types of useful information arose from these methods: 1) we generated a panel of useful peptide probes to analyze the conformational state of AR, and 2) we “fingerprinted” AR modulators with respect to AR conformation (FIG. 4B). […] FIG. 4B is the converse of 4A. It compares the ability of six ligands (DHT, MPA, CYP, RU486, FLUT and DHEAs to interact with AR in the presence of each of four peptides (D30, 5G11, B8H3 and […]). Thus, it is a “fingerprint” of each of the six ligands using a four peptide panel. (Note that “1269” and D30” refer to the same peptide.)

[3] = target: T2, Gal4 transcriptional activation domain (AD) fused in frame with AR (pGAD-C2) (yeast), P10275; assay: cell-based or functional assay
T2 chain: T1 sequence (P10275 1-920)

[4] = target: T3, pVP16-AR (VP16 activation domain fused to androgen receptor), P10275; assay: cell-based or functional assay
T3 chain: T1 sequence (P10275 1-920)

EFRFPFHEMVREWESMGLERVRYAEP [M4D1]
ligand induced β-galactosidase activity, CPA (androgen receptor [1]): −0.03955 | ligand induced β-galactosidase activity, DHT (androgen receptor [1]): 0.3948 | ligand induced β-galactosidase activity, MPA (androgen receptor [1]): 1.698 | ligand induced β-galactosidase activity, RU (androgen receptor [1]): 0.1 | ligand induced β-galactosidase activity, Test (androgen receptor [1]): 0.1337 | ligand induced β-galactosidase activity, No Lig (androgen receptor [1]): 0

EFRQSFVSEILGGGWLPLDLOPS [M2H3]
Fold induction (androgen receptor [1]): 10 | ligand induced β-galactosidase activity, CPA (androgen receptor [1]): 8.592 | ligand induced β-galactosidase activity, DHT (androgen receptor [1]): 24.12 | ligand induced β-galactosidase activity, MPA (androgen receptor [1]): 19.25 | ligand induced β-galactosidase activity, RU (androgen receptor [1]): 6.8 | ligand induced β-galactosidase activity, Test (androgen receptor [1]): 26.57 | ligand induced β-galactosidase activity, No Lig (androgen receptor [1]): 2.53

EFRSSVFEQMYLCTGGSLDLQPS* [B5G11]
luciferase normalized to β-galactosidase, CYP. (androgen receptor [2]): 4.462 | luciferase normalized to β-galactosidase, DHT (androgen receptor [2]): 15.84 | luciferase normalized to β-galactosidase, MPA (androgen receptor [2]): 8.029 | luciferase normalized to β-galactosidase, RU486 (androgen receptor [2]): 0.1051 | luciferase normalized to β-galactosidase, no compound (androgen receptor [2]): 0.05028 | ligand induced β-galactosidase activity, CPA (androgen receptor [1]): 0.9726 | ligand induced β-galactosidase activity, DHT (androgen receptor [1]): 3.964 | ligand induced β-galactosidase activity, RU (androgen receptor [1]): 0.9 | ligand induced β-galactosidase activity, No Lig (androgen receptor [1]): 0.6382

EFVNWDAVVPWSELVALLDLOPS [B8A10]
Fold induction (androgen receptor [1]): 1 | ligand induced β-galactosidase activity, CPA (androgen receptor [1]): 0.3955 | ligand induced β-galactosidase activity, DHT (androgen receptor [1]): 0.6163 | ligand induced β-galactosidase activity, RU (androgen receptor [1]): 0.4 | ligand induced β-galactosidase activity, No Lig (androgen receptor [1]): 0.8753

HPTHSSRLWELLMEATPTM [D30]
luciferase normalized to β-galactosidase, CYP. (androgen receptor [2]): 11.18 | luciferase normalized to β-galactosidase, DHT (androgen receptor [2]): 12.59 | luciferase normalized to β-galactosidase, MPA (androgen receptor [2]): 15.62 | luciferase normalized to β-galactosidase, RU486 (androgen receptor [2]): 0.8461 | luciferase normalized to β-galactosidase, no compound (androgen receptor [2]): 0.03854

B1: B5G11, P04386 1-147 (peptide)
chain: MKLLSSIEQACDICRLKKLKCSKEKPKCAKCLKNNWECRYSPKTKRSPLTRAHLTEVESRLERLEQLFLLIFPREDLDMILKMDSLQDIKALLTGLFVQDNVNKDAVTDRLASVETDMPLTLRQHRISATSSSEESSNKGQRQLTVSEFRSSVFEQMYLCTGGSLDLQPS
modifications: not checked
Fold induction, yeast two-hybrid [3]: 6 fold | β-galactosidase activity, yeast two-hybrid; CPA [3]: 0.973 | β-galactosidase activity, yeast two-hybrid; DHT [3]: 3.96 | β-galactosidase activity, yeast two-hybrid; No Lig [3]: 0.638 | β-galactosidase activity, yeast two-hybrid; RU [3]: 0.9 | normalized luciferase activity, mammalian two-hybrid; CYP. [4]: 4.46 | normalized luciferase activity, mammalian two-hybrid; DHT [4]: 15.8 | normalized luciferase activity, mammalian two-hybrid; MPA [4]: 8.03 | normalized luciferase activity, mammalian two-hybrid; RU486 [4]: 0.105 | normalized luciferase activity, mammalian two-hybrid; no compound [4]: 0.0503
